Source: the supplement of paper PMC11451515

System: SEM cells
Experiment: cell viability relative to DMSO control; higher = less cytotoxic
Conditions: 48 h
How it was run: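 Library compounds in DMSO were pin-dosed in an 11-point threefold series (47 μM to 0.79 nM) onto leukemia cells in 1536-well plates (5 μl). Plates held 500 cells/well of NOMO1 or SEM or 1000 cells/well of P12-Ichikawa, each adapted for at least four passages in each medium. Luminescence was read with CellTiter-Glo One after 48 h at 37°C. Viability means the per-plate percentage relative to DMSO wells, using cell-free wells as background.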

[1] = HPLM + 10% dialyzed FBS, 0.000781 µM
[2] = HPLM + 10% dialyzed FBS, 0.00234 µM
[3] = HPLM + 10% dialyzed FBS, 0.00702 µM
[4] = HPLM + 10% dialyzed FBS, 0.0211 µM
[5] = HPLM + 10% dialyzed FBS, 0.0632 µM
[6] = HPLM + 10% dialyzed FBS, 0.19 µM
[7] = HPLM + 10% dialyzed FBS, 0.569 µM
[8] = HPLM + 10% dialyzed FBS, 1.71 µM
[9] = HPLM + 10% dialyzed FBS, 5.12 µM
[10] = HPLM + 10% dialyzed FBS, 15.4 µM
[11] = HPLM + 10% dialyzed FBS, 46.1 µM
[12] = RPMI 5 mM glucose + 10% FBS, 0.000781 µM
[13] = RPMI 5 mM glucose + 10% FBS, 0.00234 µM
[14] = RPMI 5 mM glucose + 10% FBS, 0.00702 µM
[15] = RPMI 5 mM glucose + 10% FBS, 0.0211 µM
[16] = RPMI 5 mM glucose + 10% FBS, 0.0632 µM
[17] = RPMI 5 mM glucose + 10% FBS, 0.19 µM
[18] = RPMI 5 mM glucose + 10% FBS, 0.569 µM
[19] = RPMI 5 mM glucose + 10% FBS, 1.71 µM
[20] = RPMI 5 mM glucose + 10% FBS, 5.12 µM
[21] = RPMI 5 mM glucose + 10% FBS, 15.4 µM
[22] = RPMI 5 mM glucose + 10% FBS, 46.1 µM
[23] = RPMI 5 mM glucose + 10% dialyzed FBS, 0.000781 µM
[24] = RPMI 5 mM glucose + 10% dialyzed FBS, 0.00234 µM
[25] = RPMI 5 mM glucose + 10% dialyzed FBS, 0.00702 µM
[26] = RPMI 5 mM glucose + 10% dialyzed FBS, 0.0211 µM
[27] = RPMI 5 mM glucose + 10% dialyzed FBS, 0.0632 µM
[28] = RPMI 5 mM glucose + 10% dialyzed FBS, 0.19 µM
[29] = RPMI 5 mM glucose + 10% dialyzed FBS, 0.569 µM
[30] = RPMI 5 mM glucose + 10% dialyzed FBS, 1.71 µM
[31] = RPMI 5 mM glucose + 10% dialyzed FBS, 5.12 µM
[32] = RPMI 5 mM glucose + 10% dialyzed FBS, 15.4 µM
[33] = RPMI 5 mM glucose + 10% dialyzed FBS, 46.1 µM

SMILES	cell viability [1]	cell viability [2]	cell viability [3]	cell viability [4]	cell viability [5]	cell viability [6]	cell viability [7]	cell viability [8]	cell viability [9]	cell viability [10]	cell viability [11]	cell viability [12]	cell viability [13]	cell viability [14]	cell viability [15]	cell viability [16]	cell viability [17]	cell viability [18]	cell viability [19]	cell viability [20]	cell viability [21]	cell viability [22]	cell viability [23]	cell viability [24]	cell viability [25]	cell viability [26]	cell viability [27]	cell viability [28]	cell viability [29]	cell viability [30]	cell viability [31]	cell viability [32]	cell viability [33]
CN[C@@H](C)[C@H]1[C@H](O)C[C@@]2(C)[C@@H]3CC[C@H]4C(C)(C)[C@@H](NC)CC[C@@]45C[C@@]35CC[C@]12C	73.4%	83.6%	53.9%	85.5%	90.1%	95.8%	83.2%	98.4%	42.5%	93.4%	66.3%	81.8%	83.2%	56%	95.2%	82.7%	83.3%	109%	68.9%	40%	100%	103%	72.7%	75.4%	66.4%	83.4%	87.3%	99.2%	109%	93.9%	44.3%	99.4%	89.8%
C[C@]12COC(=O)C[C@@H]1CC[C@@H]1[C@@H]2CC[C@@]2(C)[C@H]1CC[C@]2(C)O	96.4%	97.7%	95.7%	105%	94%	93.3%	85.5%	96.6%	101%	86.3%	88.4%	105%	110%	104%	100%	106%	106%	105%	101%	95.9%	90%	78.4%	98.2%	109%	104%	111%	121%	109%	101%	92%	101%	89.5%	78.6%
ClC1=CC=C(C=C1)C(C#N)C2=C(Cl)C=C(C=C2Cl)N3\N=C/C(=O)NC3=O (centres undefined)	87.4%	43.9%	104%	83.7%	91.8%	94.8%	91.3%	93.9%	86.4%	91.6%	107%	90.6%	47.9%	96.6%	92.5%	87.1%	98.4%	90.1%	90.2%	96.3%	82.3%	76.7%	93.1%	42.5%	99.2%	100%	106%	119%	104%	94.6%	109%	95.8%	89.7%
CN1CCN(C2=Nc3cc(Cl)ccc3Nc3ccccc32)CC1	85.6%	93.8%	108%	107%	83.2%	111%	109%	121%	113%	106%	25.6%	93%	96.1%	107%	96.1%	68.9%	92.9%	103%	110%	109%	112%	20.6%	94.3%	116%	104%	83.1%	83.5%	118%	112%	123%	110%	92%	22.5%
CC(C)OC(=O)C(C(=O)OC(C)C)=C1S\C=C/S1	112%	119%	128%	125%	120%	123%	117%	123%	118%	70.1%	113%	114%	135%	122%	125%	122%	133%	141%	131%	116%	50.9%	109%	–	–	–	–	–	–	–	–	–	–	–
CC(C)CNc1ccnc(NCc2csc(-c3ccccc3)n2)n1	88.4%	107%	104%	100%	121%	113%	107%	120%	108%	64.2%	61.1%	110%	110%	127%	113%	138%	145%	142%	138%	113%	88.9%	68.2%	–	–	–	–	–	–	–	–	–	–	–
CCN(CC)CCOc1ccc(/C(=C(\Cl)c2ccccc2)c2ccccc2)cc1	111%	118%	128%	114%	118%	116%	134%	125%	129%	112%	101%	90%	94.7%	115%	116%	118%	128%	124%	116%	108%	116%	91.6%	104%	124%	125%	127%	142%	144%	127%	126%	123%	126%	118%
S=C(NCc1ccc2c(c1)OCO2)N1CCN(c2ncnc3c2oc2ccccc23)CC1	116%	120%	123%	100%	129%	23.2%	124%	124%	93.7%	79.4%	16.7%	–	–	–	–	–	–	–	–	–	–	–	104%	103%	121%	127%	134%	126%	134%	135%	62.9%	64.5%	17.5%
O=C(C=CC#Cc1cccc(N[S+](=O)([O-])c2ccccc2)c1)NO	119%	103%	113%	119%	122%	109%	107%	87%	13.1%	4.27%	4.02%	112%	80.6%	103%	111%	109%	89.3%	101%	84.4%	10.9%	4.75%	4.28%	105%	94.8%	102%	100%	120%	117%	115%	80.2%	7.4%	5.47%	5.05%
Cc1c(C)n(Cc2ccc(-c3ccccc3C(=O)O)cc2)c2ccc(C(=O)N[C@@H](C)c3ccc([N+](=O)[O-])cc3)cc12	106%	101%	117%	105%	107%	105%	116%	110%	108%	109%	119%	109%	109%	115%	112%	118%	119%	118%	124%	120%	121%	110%	99.2%	117%	115%	112%	116%	127%	120%	117%	115%	115%	106%
Cc1nn(Cc2ccccc2Cl)c(C)c1CN(C)CC(O)COc1ccc(Cl)cc1 (centres undefined)	95.7%	98.1%	103%	119%	100%	102%	109%	104%	105%	41.8%	46.9%	100%	109%	93%	112%	110%	116%	107%	114%	105%	41.1%	41.4%	109%	91.8%	107%	103%	113%	89.9%	97.2%	101%	95.8%	39.2%	38.3%
FC1=C(C=C(C\C2=N\NC(=O)C3=C2C=CC=C3)C=C1)C(=O)N4CCN(CC4)C(=O)C5CC5	80.9%	84%	100%	99%	97%	94.9%	85.7%	91.6%	86.5%	19.7%	41.1%	94.7%	95.8%	103%	109%	107%	105%	92.8%	87.1%	76.3%	13.1%	26.5%	71.6%	79%	92%	70.5%	77.7%	81.3%	74.8%	78.2%	62.4%	17.5%	24.8%
CNC(=O)c1ccc2cc(C3(O)CCn4cncc43)ccc2c1 (centres undefined)	128%	119%	103%	125%	125%	113%	108%	107%	106%	123%	107%	–	–	–	–	–	–	–	–	–	–	–	–	–	–	–	–	–	–	–	–	–	–
CNc1nc(Nc2ccc(C(=O)N3CCOCC3)cc2OC)ncc1Cl	–	–	–	–	–	–	–	–	–	–	–	107%	120%	101%	104%	113%	107%	70.9%	128%	97.9%	92.4%	42.2%	123%	106%	118%	111%	120%	114%	78.5%	114%	131%	105%	68.8%
CC(C)c1noc(N2CCC(COc3ccc(-c4ccc([S+](C)(=O)[O-])cc4)nc3)CC2)n1	131%	81.5%	115%	122%	132%	32.7%	128%	84.8%	16.3%	122%	109%	111%	73.4%	140%	126%	134%	23.1%	120%	53.1%	12.9%	114%	112%	111%	56%	136%	138%	115%	28.8%	111%	60.4%	10.3%	100%	104%
